Patent publication US11697648B2, “Fused pyrimidine pyridinone compounds as JAK inhibitors” (THERAVANCE BIOPHARMA R&D IP, LLC, priority 2019, dated 2023)

Experiments:
JAK1 = JAK1 (Homo sapiens (Human), UniProt P23458); assay: Biochemical JAK1 kinase assay (LanthaScreen)
How it was run: (§1)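 GST-JAK + GFP-STAT1 peptide, HEPES pH 7.5/MgCl2/EGTA/Brij-35 buffer; cpd preincubation 1 h RT; ATP start, 1 h RT; stop with 10 mM EDTA + 2 nM Tb-anti-pSTAT1; TR-FRET 520/495. 4-parameter IC50 → pKi (Cheng-Prusoff).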

Tyk2 = Tyk2 (Homo sapiens (Human), UniProt P29597); assay: Biochemical Tyk2 kinase assay (LanthaScreen)
Chain of Tyk2 (P29597 whole entry): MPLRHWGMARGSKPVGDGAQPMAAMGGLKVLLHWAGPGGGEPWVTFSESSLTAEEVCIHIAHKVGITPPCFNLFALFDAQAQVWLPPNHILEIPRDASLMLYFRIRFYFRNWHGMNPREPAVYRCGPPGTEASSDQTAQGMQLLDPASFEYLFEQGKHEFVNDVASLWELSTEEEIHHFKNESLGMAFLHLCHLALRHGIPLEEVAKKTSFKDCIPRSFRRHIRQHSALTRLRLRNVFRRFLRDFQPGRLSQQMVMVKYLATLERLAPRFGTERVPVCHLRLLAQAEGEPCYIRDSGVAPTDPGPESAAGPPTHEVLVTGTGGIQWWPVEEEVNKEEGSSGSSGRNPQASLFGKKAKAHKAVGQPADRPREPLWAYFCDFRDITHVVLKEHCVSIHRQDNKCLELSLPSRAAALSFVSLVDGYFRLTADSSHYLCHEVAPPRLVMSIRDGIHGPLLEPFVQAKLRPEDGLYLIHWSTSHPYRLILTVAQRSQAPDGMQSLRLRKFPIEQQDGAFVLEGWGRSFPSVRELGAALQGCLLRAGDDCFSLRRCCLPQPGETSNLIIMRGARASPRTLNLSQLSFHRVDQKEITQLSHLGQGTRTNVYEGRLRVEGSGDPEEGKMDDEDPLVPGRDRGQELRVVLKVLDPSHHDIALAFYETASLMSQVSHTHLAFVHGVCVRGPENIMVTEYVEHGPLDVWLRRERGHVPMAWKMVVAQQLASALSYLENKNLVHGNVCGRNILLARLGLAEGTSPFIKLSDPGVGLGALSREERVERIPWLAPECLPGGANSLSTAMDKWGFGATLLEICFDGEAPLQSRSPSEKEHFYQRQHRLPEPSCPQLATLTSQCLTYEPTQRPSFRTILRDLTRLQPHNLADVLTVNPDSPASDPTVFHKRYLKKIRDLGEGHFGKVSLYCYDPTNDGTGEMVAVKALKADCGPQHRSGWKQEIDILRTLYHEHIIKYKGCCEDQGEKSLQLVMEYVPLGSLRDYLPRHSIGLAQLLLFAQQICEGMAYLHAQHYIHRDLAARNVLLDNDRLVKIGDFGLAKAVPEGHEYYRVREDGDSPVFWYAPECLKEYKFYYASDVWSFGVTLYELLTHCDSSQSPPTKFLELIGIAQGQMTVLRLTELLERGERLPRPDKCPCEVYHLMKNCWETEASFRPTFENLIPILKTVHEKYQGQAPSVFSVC
How it was run: as §1

JAK2 = JAK2 (Homo sapiens (Human), UniProt O60674); assay: Biochemical JAK2 kinase assay (LanthaScreen)
Chain of JAK2 (O60674 whole entry): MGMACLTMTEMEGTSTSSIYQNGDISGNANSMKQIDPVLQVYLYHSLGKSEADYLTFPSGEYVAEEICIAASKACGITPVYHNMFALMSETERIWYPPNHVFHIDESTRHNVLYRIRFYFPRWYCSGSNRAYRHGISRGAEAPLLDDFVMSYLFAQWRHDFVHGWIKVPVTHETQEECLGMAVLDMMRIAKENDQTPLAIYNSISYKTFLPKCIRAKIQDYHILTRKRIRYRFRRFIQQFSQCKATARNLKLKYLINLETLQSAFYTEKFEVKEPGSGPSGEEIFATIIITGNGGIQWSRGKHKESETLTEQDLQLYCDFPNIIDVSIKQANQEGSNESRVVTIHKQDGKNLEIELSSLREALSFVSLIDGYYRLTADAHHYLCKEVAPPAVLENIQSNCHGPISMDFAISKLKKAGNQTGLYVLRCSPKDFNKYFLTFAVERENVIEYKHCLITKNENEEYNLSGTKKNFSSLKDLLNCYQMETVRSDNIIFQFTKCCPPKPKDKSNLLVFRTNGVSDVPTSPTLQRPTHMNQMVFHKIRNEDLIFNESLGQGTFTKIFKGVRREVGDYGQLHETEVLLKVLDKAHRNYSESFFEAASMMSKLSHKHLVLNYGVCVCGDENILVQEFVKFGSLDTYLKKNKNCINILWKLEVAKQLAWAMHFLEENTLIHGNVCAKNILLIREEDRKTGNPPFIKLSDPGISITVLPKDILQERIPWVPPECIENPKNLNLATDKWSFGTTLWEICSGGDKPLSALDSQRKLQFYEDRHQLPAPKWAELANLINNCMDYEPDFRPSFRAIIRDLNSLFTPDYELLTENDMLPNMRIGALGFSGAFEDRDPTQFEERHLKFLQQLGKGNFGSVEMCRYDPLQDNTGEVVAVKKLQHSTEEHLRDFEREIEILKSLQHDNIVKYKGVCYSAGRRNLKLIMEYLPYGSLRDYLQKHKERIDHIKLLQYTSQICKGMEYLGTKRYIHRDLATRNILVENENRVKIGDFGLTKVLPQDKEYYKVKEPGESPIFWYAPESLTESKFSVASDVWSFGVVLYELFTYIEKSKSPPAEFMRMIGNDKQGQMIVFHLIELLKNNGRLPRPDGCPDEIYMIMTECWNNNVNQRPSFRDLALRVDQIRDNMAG
How it was run: as §1

[1] = Colon and plasma mouse pharmacokinetics; assay type: in vivo; conditions: mouse, colon tissue / plasma; male Balb/c mice, 10 mg/kg PO; ratio of the colon AUC to the plasma AUC
How it was run: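 Male Balb/c mice given 10 mg/kg PO in 1% HPMC + 0.1% Tween-80; plasma, colon tissue and colon contents taken at 0.5, 2 and 6 h, quantified by LC/MS/MS. Non-compartmental analysis on means of 2 animals/time point; colon:plasma ratio taken as colon AUC over plasma AUC.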

[2] = test system: IL-2 stimulated STAT5 phosphorylation in Tall-1 human T cell line (JAK3); assay: Cellular JAK3 potency assay: inhibition of IL-2 stimulated pSTAT5 in Tall-1 T cells; assay type: cell-based; conditions: IL-2 stimulated pSTAT5, Tall-1 T cells
How it was run: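 Tall-1 cells, 45,000 per well, preincubated 1 hour with compound at 37 °C, then stimulated 30 minutes with IL-2 at 300 ng/ml final. pSTAT5 (Tyr694/699) in lysates quantified by AlphaLISA SureFire Ultra. pIC50 derived from inhibition curves, given as mean with SD.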

Caco-2 cell monolayers = assay: Caco-2 permeation assay; assay type: in vitro ADME; conditions: 5 μM, A-B direction, with Verapamil (25 μM)
How it was run: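 Compounds tested at 5 μM in duplicate across Caco-2 monolayers, apical-to-basolateral, with 25 μM verapamil to block P-gp, at 37° C., 5% CO2. Apical and basal samples taken at 0 and 120 min, analysed by LC-MS/MS; Papp (cm/sec) calculated as dQ/(dt×Area×concentration).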

JAK3 = JAK3 (Homo sapiens (Human), UniProt P52333); assay: Biochemical JAK3 kinase assay (LanthaScreen); conditions: for JAK3 (pKi)-JAK1 (pKi): selectivity JAK3 over JAK1, difference of pKi
Chain of JAK3 (P52333 whole entry): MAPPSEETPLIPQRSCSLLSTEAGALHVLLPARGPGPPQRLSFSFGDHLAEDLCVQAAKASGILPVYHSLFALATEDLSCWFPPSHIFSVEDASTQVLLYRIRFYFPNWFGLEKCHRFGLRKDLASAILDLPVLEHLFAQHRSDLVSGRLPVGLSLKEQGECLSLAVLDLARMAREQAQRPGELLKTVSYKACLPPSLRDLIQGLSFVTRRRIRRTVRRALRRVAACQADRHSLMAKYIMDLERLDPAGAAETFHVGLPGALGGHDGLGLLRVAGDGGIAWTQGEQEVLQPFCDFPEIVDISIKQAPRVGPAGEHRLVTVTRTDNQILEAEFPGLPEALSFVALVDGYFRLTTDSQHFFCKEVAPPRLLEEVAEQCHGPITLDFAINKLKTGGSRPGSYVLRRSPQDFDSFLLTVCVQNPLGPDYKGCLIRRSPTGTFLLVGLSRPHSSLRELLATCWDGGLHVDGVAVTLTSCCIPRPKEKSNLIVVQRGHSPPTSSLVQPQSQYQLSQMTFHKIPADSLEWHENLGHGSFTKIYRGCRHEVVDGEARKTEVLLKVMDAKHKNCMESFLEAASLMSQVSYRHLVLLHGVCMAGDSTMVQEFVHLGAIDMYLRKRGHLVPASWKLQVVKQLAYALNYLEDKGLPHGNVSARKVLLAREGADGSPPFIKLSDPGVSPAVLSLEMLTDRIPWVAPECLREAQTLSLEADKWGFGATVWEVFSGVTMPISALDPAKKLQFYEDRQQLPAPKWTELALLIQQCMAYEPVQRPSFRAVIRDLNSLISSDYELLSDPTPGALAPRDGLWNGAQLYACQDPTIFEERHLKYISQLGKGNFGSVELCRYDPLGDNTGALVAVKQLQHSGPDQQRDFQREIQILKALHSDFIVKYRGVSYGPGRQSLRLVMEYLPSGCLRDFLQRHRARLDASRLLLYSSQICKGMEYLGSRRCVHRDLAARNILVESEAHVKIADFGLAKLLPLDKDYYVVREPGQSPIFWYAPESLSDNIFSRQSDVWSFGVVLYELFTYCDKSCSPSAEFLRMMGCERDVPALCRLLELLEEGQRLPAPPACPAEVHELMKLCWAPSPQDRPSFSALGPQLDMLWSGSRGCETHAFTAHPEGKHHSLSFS
How it was run: as §1

Chain of JAK1 (P23458 whole entry): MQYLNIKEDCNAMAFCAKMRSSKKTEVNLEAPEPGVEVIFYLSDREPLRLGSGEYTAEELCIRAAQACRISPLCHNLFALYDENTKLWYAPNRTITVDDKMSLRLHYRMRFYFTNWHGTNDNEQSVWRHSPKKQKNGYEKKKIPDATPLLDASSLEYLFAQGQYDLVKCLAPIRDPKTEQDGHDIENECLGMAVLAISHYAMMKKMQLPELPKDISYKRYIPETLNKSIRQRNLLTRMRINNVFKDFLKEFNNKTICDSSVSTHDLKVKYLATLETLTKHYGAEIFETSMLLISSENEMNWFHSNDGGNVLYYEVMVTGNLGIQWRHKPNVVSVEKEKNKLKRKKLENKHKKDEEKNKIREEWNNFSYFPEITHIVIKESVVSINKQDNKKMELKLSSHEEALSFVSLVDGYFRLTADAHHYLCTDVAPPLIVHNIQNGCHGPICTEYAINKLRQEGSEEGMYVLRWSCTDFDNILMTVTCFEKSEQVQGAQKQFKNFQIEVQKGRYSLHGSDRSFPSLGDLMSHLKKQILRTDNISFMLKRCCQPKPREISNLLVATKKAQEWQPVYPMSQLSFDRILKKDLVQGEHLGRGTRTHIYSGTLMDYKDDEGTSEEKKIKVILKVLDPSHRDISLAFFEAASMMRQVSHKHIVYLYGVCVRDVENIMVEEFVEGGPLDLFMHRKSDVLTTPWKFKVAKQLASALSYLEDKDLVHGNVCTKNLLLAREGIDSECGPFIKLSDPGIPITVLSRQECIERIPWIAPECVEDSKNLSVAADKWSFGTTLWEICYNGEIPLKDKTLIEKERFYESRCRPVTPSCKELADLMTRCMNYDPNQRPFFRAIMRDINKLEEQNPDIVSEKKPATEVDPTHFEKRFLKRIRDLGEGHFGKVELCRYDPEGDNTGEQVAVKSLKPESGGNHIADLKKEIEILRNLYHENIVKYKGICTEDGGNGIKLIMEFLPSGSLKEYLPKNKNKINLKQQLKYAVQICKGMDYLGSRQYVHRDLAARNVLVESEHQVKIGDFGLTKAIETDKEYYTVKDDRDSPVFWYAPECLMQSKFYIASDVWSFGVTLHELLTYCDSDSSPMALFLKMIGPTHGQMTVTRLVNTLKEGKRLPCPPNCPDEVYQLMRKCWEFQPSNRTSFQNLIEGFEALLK

SMILES	JAK 1 (pKi) (JAK1)	Tyk 2 (pKi) (Tyk2)	JAK 2 (pKi) (JAK2)	Kp [1]	Tall-1 (pIC50) [2]	Caco Kp (Caco-2 cell monolayers)	JAK 3 (pKi) (JAK3)	JAK3 (pKi)-JAK1 (pKi) (JAK3)
C=CC(=O)N1CC(CCn2c(=O)ccc3cnc(Nc4cccc(CN5CCN(C(=O)CCSC)CC5)c4)nc32)C1 [Example 110]	E (E represents a pKi value of 7 or below (Ki of 100 nM or above))	E (E represents a pKi value of 7 or below (Ki of 100 nM or above))	E (E represents a pKi value of 7 or below (Ki of 100 nM or above))	> 1000	A (A represents a pIC50 value≥7.5 (IC50≤32 nM))	B (B represents a value between 5×10^−6 and 10×10^−6 cm/sec)	A (A represents a pKi value≥10 (Ki≤0.1 nM))	A (A represents a value of 3 or above)
C=CC(=O)N1CC(CCn2c(=O)ccc3cnc(Nc4cccc(CN5CCN(C(=O)COC)CC5)c4)nc32)C1 [Example 112]	E (E represents a pKi value of 7 or below (Ki of 100 nM or above))	E (E represents a pKi value of 7 or below (Ki of 100 nM or above))	E (E represents a pKi value of 7 or below (Ki of 100 nM or above))	> 100	B (B represents a pC50 value between 6.7 (included) and 7.5 (IC50 between 200 nM and 32 nM))	A (A represents a value below 5×10^−6 cm/sec)	A (A represents a pKi value≥10 (Ki≤0.1 nM))	A (A represents a value of 3 or above)
C=CC(=O)N1CC(CCn2c(=O)ccc3cnc(Nc4cccc(CN5CCN(C(C)=O)CC5)c4)nc32)C1 [Example 133]	E (E represents a pKi value of 7 or below (Ki of 100 nM or above))	E (E represents a pKi value of 7 or below (Ki of 100 nM or above))	E (E represents a pKi value of 7 or below (Ki of 100 nM or above))	> 100	B (B represents a pC50 value between 6.7 (included) and 7.5 (IC50 between 200 nM and 32 nM))	A (A represents a value below 5×10^−6 cm/sec)	A (A represents a pKi value≥10 (Ki≤0.1 nM))	A (A represents a value of 3 or above)
C=CC(=O)N1CC(CCn2c(=O)ccc3cnc(Nc4cccc(CN5CCN(C(=O)CSC)CC5)c4)nc32)C1 [Example 134]	E (E represents a pKi value of 7 or below (Ki of 100 nM or above))	E (E represents a pKi value of 7 or below (Ki of 100 nM or above))	E (E represents a pKi value of 7 or below (Ki of 100 nM or above))	> 100	B (B represents a pC50 value between 6.7 (included) and 7.5 (IC50 between 200 nM and 32 nM))	A (A represents a value below 5×10^−6 cm/sec)	A (A represents a pKi value≥10 (Ki≤0.1 nM))	A (A represents a value of 3 or above)
C=CC(=O)N1CCN(CCn2c(=O)ccc3cnc(Nc4ccc(N5CCN(C(=O)CSC)CC5)cc4)nc32)CC1 [Example 150]	E (E represents a pKi value of 7 or below (Ki of 100 nM or above))	E (E represents a pKi value of 7 or below (Ki of 100 nM or above))	E (E represents a pKi value of 7 or below (Ki of 100 nM or above))	> 100	B (B represents a pC50 value between 6.7 (included) and 7.5 (IC50 between 200 nM and 32 nM))	A (A represents a value below 5×10^−6 cm/sec)	A (A represents a pKi value≥10 (Ki≤0.1 nM))	A (A represents a value of 3 or above)
C=CC(=O)N1CCN(CCn2c(=O)ccc3cnc(Nc4ccc(N5CCN(C(C)=O)CC5)cc4)nc32)[C@@H](C)C1 [Example 155]	E (E represents a pKi value of 7 or below (Ki of 100 nM or above))	E (E represents a pKi value of 7 or below (Ki of 100 nM or above))	E (E represents a pKi value of 7 or below (Ki of 100 nM or above))	> 1000	B (B represents a pC50 value between 6.7 (included) and 7.5 (IC50 between 200 nM and 32 nM))	A (A represents a value below 5×10^−6 cm/sec)	B (B represents pKi value between 9 and 10 (Ki between 1 nM and 0.1 nM))	A (A represents a value of 3 or above)
C=CC(=O)N1CCN(CCn2c(=O)ccc3cnc(Nc4ccc(N5CCN(C(=O)CCSC)CC5)cc4)nc32)[C@@H](C)C1 [Example 171]	E (E represents a pKi value of 7 or below (Ki of 100 nM or above))	E (E represents a pKi value of 7 or below (Ki of 100 nM or above))	E (E represents a pKi value of 7 or below (Ki of 100 nM or above))	> 1000	A (A represents a pIC50 value≥7.5 (IC50≤32 nM))	B (B represents a value between 5×10^−6 and 10×10^−6 cm/sec)	A (A represents a pKi value≥10 (Ki≤0.1 nM))	A (A represents a value of 3 or above)
C=CC(=O)N1CCN(CCn2c(=O)ccc3cnc(Nc4ccc(N5CCN(C(=O)CSC)CC5)cc4)nc32)[C@@H](C)C1 [Example 173]	E (E represents a pKi value of 7 or below (Ki of 100 nM or above))	E (E represents a pKi value of 7 or below (Ki of 100 nM or above))	E (E represents a pKi value of 7 or below (Ki of 100 nM or above))	> 100	B (B represents a pC50 value between 6.7 (included) and 7.5 (IC50 between 200 nM and 32 nM))	A (A represents a value below 5×10^−6 cm/sec)	B (B represents pKi value between 9 and 10 (Ki between 1 nM and 0.1 nM))	A (A represents a value of 3 or above)
C=CC(=O)N1CCN(CCn2c(=O)ccc3cnc(Nc4ccc(N5CCN(C(=O)N(C)C)CC5)cc4)nc32)[C@@H](C)C1 [Example 174]	E (E represents a pKi value of 7 or below (Ki of 100 nM or above))	E (E represents a pKi value of 7 or below (Ki of 100 nM or above))	E (E represents a pKi value of 7 or below (Ki of 100 nM or above))	> 14	B (B represents a pC50 value between 6.7 (included) and 7.5 (IC50 between 200 nM and 32 nM))	B (B represents a value between 5×10^−6 and 10×10^−6 cm/sec)	B (B represents pKi value between 9 and 10 (Ki between 1 nM and 0.1 nM))	A (A represents a value of 3 or above)
C=CC(=O)N1CCN(CCn2c(=O)ccc3cnc(Nc4ccc(N5CCN(C(=O)COC)CC5)cc4)nc32)[C@@H](C)C1 [Example 175]	E (E represents a pKi value of 7 or below (Ki of 100 nM or above))	E (E represents a pKi value of 7 or below (Ki of 100 nM or above))	E (E represents a pKi value of 7 or below (Ki of 100 nM or above))	> 100	B (B represents a pC50 value between 6.7 (included) and 7.5 (IC50 between 200 nM and 32 nM))	A (A represents a value below 5×10^−6 cm/sec)	B (B represents pKi value between 9 and 10 (Ki between 1 nM and 0.1 nM))	A (A represents a value of 3 or above)
